Laboratory results from ChEMBL document CHEMBL1201861, “Genomics of Drug Sensitity in Cancer screening data, Wellcome Trust Sanger Institute”.

These compounds were tested on MLMA (assay: cells). Conditions: Homo sapiens, MLMA.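 Also: growth inhibition of MLMA cells (human), determined through a cell viability readout.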
Format: functional, cell-based, Homo sapiens
Description: SANGER: Inhibition of human MLMA cell growth in a cell viability assay.
`COc1cc(N2CCC(N3CCN(C)CC3)CC2)ccc1Nc1ncc(Cl)c(Nc2ccccc2S(=O)(=O)C(C)C)n1` [TAE-684] was tested, and the IC50 was > 2 µM.

Each compound was assayed on HT (assay: cells). Conditions: Homo sapiens, HT.
Format: functional, cell-based, Homo sapiens
Description: SANGER: Inhibition of human HT cell growth in a cell viability assay.
For `COc1cc(N2CCC(N3CCN(C)CC3)CC2)ccc1Nc1ncc(Cl)c(Nc2ccccc2S(=O)(=O)C(C)C)n1` [TAE-684], the IC50 was > 2 µM.

Each compound was assayed on A253 cell line (assay: cells). Conditions: Homo sapiens, A253.
Format: functional, cell-based, Homo sapiens
Description: SANGER: Inhibition of human A253 cell growth in a cell viability assay.
`COc1cc(N2CCC(N3CCN(C)CC3)CC2)ccc1Nc1ncc(Cl)c(Nc2ccccc2S(=O)(=O)C(C)C)n1` [TAE-684] was tested, and the IC50 was > 2 µM.

What follows are compounds tested on MZ1-PC (assay: cells). Conditions: Homo sapiens, MZ1-PC.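 Also: cell viability assay measuring growth inhibition of human MZ1-PC cells.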
Format: functional, cell-based, Homo sapiens
Description: SANGER: Inhibition of human MZ1-PC cell growth in a cell viability assay.
`COc1cc(N2CCC(N3CCN(C)CC3)CC2)ccc1Nc1ncc(Cl)c(Nc2ccccc2S(=O)(=O)C(C)C)n1` [TAE-684] showed an IC50 of 0.178 µM.

Each compound was assayed on EW-3 (assay: cells). Conditions: Homo sapiens, EW-3.
Format: functional, cell-based, Homo sapiens
Description: SANGER: Inhibition of human EW-3 cell growth in a cell viability assay.
In the case of `COc1cc(N2CCC(N3CCN(C)CC3)CC2)ccc1Nc1ncc(Cl)c(Nc2ccccc2S(=O)(=O)C(C)C)n1` [TAE-684], the IC50 is reported as > 2 µM.

What follows are compounds tested on PSN1 (assay: cells). Conditions: Homo sapiens, PSN1.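 Also: suppression of growth of human PSN1 cells, read out by a cell viability assay.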
Format: functional, cell-based, Homo sapiens
Description: SANGER: Inhibition of human PSN1 cell growth in a cell viability assay.
`COc1cc(N2CCC(N3CCN(C)CC3)CC2)ccc1Nc1ncc(Cl)c(Nc2ccccc2S(=O)(=O)C(C)C)n1` [TAE-684] gave an IC50 of 0.196 µM.

These compounds were tested on NOS-1 (assay: cells). Conditions: Homo sapiens, NOS-1.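 Also: growth inhibition of the human NOS-1 cell line, read out with a cell viability assay.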
Format: functional, cell-based, Homo sapiens
Description: SANGER: Inhibition of human NOS-1 cell growth in a cell viability assay.
Compound `COc1cc(N2CCC(N3CCN(C)CC3)CC2)ccc1Nc1ncc(Cl)c(Nc2ccccc2S(=O)(=O)C(C)C)n1` [TAE-684] has an IC50 of 0.103 µM.

What follows are compounds tested on DSH1 (assay: cells). Conditions: Homo sapiens.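 Also: growth inhibition of human DSH1 cells, measured with a cell viability readout.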
Format: functional, cell-based
Description: SANGER: Inhibition of human DSH1 cell growth in a cell viability assay.
With `COc1cc(N2CCC(N3CCN(C)CC3)CC2)ccc1Nc1ncc(Cl)c(Nc2ccccc2S(=O)(=O)C(C)C)n1` [TAE-684] the IC50 was > 2 µM.

What follows are compounds tested on KP-N-YS (assay: cells). Conditions: Homo sapiens, KP-N-YS.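 Also: cell viability assay measuring inhibition of cell line growth.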
Format: functional, cell-based, Homo sapiens
Description: SANGER: Inhibition of human KP-N-YS cell growth in a cell viability assay.
For `COc1cc(N2CCC(N3CCN(C)CC3)CC2)ccc1Nc1ncc(Cl)c(Nc2ccccc2S(=O)(=O)C(C)C)n1` [TAE-684], the IC50 was > 2 µM.

Each compound was assayed on RKO (assay: cells). Conditions: Homo sapiens, RKO.
Format: functional, cell-based, Homo sapiens
Description: SANGER: Inhibition of human RKO cell growth in a cell viability assay.
`COc1cc(N2CCC(N3CCN(C)CC3)CC2)ccc1Nc1ncc(Cl)c(Nc2ccccc2S(=O)(=O)C(C)C)n1` [TAE-684] gave an IC50 of 1.5 µM.

What follows are compounds tested on ES3 (assay: cells). Conditions: Homo sapiens, ES3.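 Also: growth inhibition of ES3 cells, read out with a cell viability assay.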
Format: functional, cell-based, Homo sapiens
Description: SANGER: Inhibition of human ES3 cell growth in a cell viability assay.
For `COc1cc(N2CCC(N3CCN(C)CC3)CC2)ccc1Nc1ncc(Cl)c(Nc2ccccc2S(=O)(=O)C(C)C)n1` [TAE-684], the IC50 was > 2 µM.

The compounds below were run on U-266 (assay: cells). Conditions: Homo sapiens, U-266.
Format: functional, cell-based, Homo sapiens
Description: SANGER: Inhibition of human U-266 cell growth in a cell viability assay.
`COc1cc(N2CCC(N3CCN(C)CC3)CC2)ccc1Nc1ncc(Cl)c(Nc2ccccc2S(=O)(=O)C(C)C)n1` [TAE-684] showed an IC50 of 1.74 µM.

The compounds below were run on KU812 cell line (assay: cells). Conditions: Homo sapiens, KU812.
Format: functional, cell-based, Homo sapiens
Description: SANGER: Inhibition of human KU812 cell growth in a cell viability assay.
With `COc1cc(N2CCC(N3CCN(C)CC3)CC2)ccc1Nc1ncc(Cl)c(Nc2ccccc2S(=O)(=O)C(C)C)n1` [TAE-684] the IC50 was > 2 µM.

What follows are compounds tested on J-RT3-T3-5 (assay: cells). Conditions: Homo sapiens, J-RT3-T3-5.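 Also: cell viability assay measuring growth inhibition of human J-RT3-T3-5 cells.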
Format: functional, cell-based, Homo sapiens
Description: SANGER: Inhibition of human J-RT3-T3-5 cell growth in a cell viability assay.
For `COc1cc(N2CCC(N3CCN(C)CC3)CC2)ccc1Nc1ncc(Cl)c(Nc2ccccc2S(=O)(=O)C(C)C)n1` [TAE-684], the IC50 was > 2 µM.

Each compound was assayed on SW 962 (assay: cells). Conditions: Homo sapiens, SW 962.
Format: functional, cell-based, Homo sapiens
Description: SANGER: Inhibition of human SW962 cell growth in a cell viability assay.
Compound `COc1cc(N2CCC(N3CCN(C)CC3)CC2)ccc1Nc1ncc(Cl)c(Nc2ccccc2S(=O)(=O)C(C)C)n1` [TAE-684] has an IC50 of 1.56 µM.

What follows are compounds tested on SK-MEL-2 (assay: cells). Conditions: Homo sapiens, SK-MEL-2.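 Also: growth inhibition of human SK-MEL-2 cells measured with a cell viability assay.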
Format: functional, cell-based, Homo sapiens
Description: SANGER: Inhibition of human SK-MEL-2 cell growth in a cell viability assay.
For `COc1cc(N2CCC(N3CCN(C)CC3)CC2)ccc1Nc1ncc(Cl)c(Nc2ccccc2S(=O)(=O)C(C)C)n1` [TAE-684], the IC50 was > 2 µM.

Each compound was assayed on D-263MG (assay: cells). Conditions: Homo sapiens, D-263MG.
Format: functional, cell-based, Homo sapiens
Description: SANGER: Inhibition of human D-263MG cell growth in a cell viability assay.
`COc1cc(N2CCC(N3CCN(C)CC3)CC2)ccc1Nc1ncc(Cl)c(Nc2ccccc2S(=O)(=O)C(C)C)n1` [TAE-684] was tested, and the IC50 was > 2 µM.

Each compound was assayed on LS-411N (assay: cells). Conditions: Homo sapiens, LS-411N.
Format: functional, cell-based, Homo sapiens
In the case of `COc1cc(N2CCC(N3CCN(C)CC3)CC2)ccc1Nc1ncc(Cl)c(Nc2ccccc2S(=O)(=O)C(C)C)n1` [TAE-684], the IC50 is reported as 0.675 µM.

What follows are compounds tested on NCI-H1581 (assay: cells). Conditions: Homo sapiens, NCI-H1581.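 Also: cell growth inhibition read out by a viability assay.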
Format: functional, cell-based, Homo sapiens
Description: SANGER: Inhibition of human NCI-H1581 cell growth in a cell viability assay.
`COc1cc(N2CCC(N3CCN(C)CC3)CC2)ccc1Nc1ncc(Cl)c(Nc2ccccc2S(=O)(=O)C(C)C)n1` [TAE-684] was tested, and the IC50 was > 2 µM.

These compounds were tested on BB65-RCC (assay: cells). Conditions: Homo sapiens, BB65-RCC.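 Also: growth inhibition of the cell line, measured with a cell viability assay.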
Format: functional, cell-based, Homo sapiens
Description: SANGER: Inhibition of human BB65-RCC cell growth in a cell viability assay.
With `COc1cc(N2CCC(N3CCN(C)CC3)CC2)ccc1Nc1ncc(Cl)c(Nc2ccccc2S(=O)(=O)C(C)C)n1` [TAE-684] the IC50 was > 2 µM.

The compounds below were run on COLO-824 (assay: cells). Conditions: Homo sapiens, COLO-824.
Format: functional, cell-based, Homo sapiens
Description: SANGER: Inhibition of human COLO-824 cell growth in a cell viability assay.
In the case of `COc1cc(N2CCC(N3CCN(C)CC3)CC2)ccc1Nc1ncc(Cl)c(Nc2ccccc2S(=O)(=O)C(C)C)n1` [TAE-684], the IC50 is reported as > 2 µM.

What follows are compounds tested on OMC-1 (assay: cells). Conditions: Homo sapiens, OMC-1.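 Also: growth inhibition of the OMC-1 cell line, measured by a cell viability assay.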
Format: functional, cell-based, Homo sapiens
Description: SANGER: Inhibition of human OMC-1 cell growth in a cell viability assay.
In the case of `COc1cc(N2CCC(N3CCN(C)CC3)CC2)ccc1Nc1ncc(Cl)c(Nc2ccccc2S(=O)(=O)C(C)C)n1` [TAE-684], the IC50 is reported as > 2 µM.

The compounds below were run on BT-474 (assay: cells). Conditions: Homo sapiens, BT-474.
Format: functional, cell-based, Homo sapiens
Description: SANGER: Inhibition of human BT-474 cell growth in a cell viability assay.
In the case of `COc1cc(N2CCC(N3CCN(C)CC3)CC2)ccc1Nc1ncc(Cl)c(Nc2ccccc2S(=O)(=O)C(C)C)n1` [TAE-684], the IC50 is reported as > 2 µM.

These compounds were tested on CGTH-W-1 (assay: cells). Conditions: Homo sapiens, CGTH-W-1.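 Also: growth inhibition of human CGTH-W-1 cells measured by cell viability assay.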
Format: functional, cell-based, Homo sapiens
Description: SANGER: Inhibition of human CGTH-W-1 cell growth in a cell viability assay.
In the case of `COc1cc(N2CCC(N3CCN(C)CC3)CC2)ccc1Nc1ncc(Cl)c(Nc2ccccc2S(=O)(=O)C(C)C)n1` [TAE-684], the IC50 is reported as > 2 µM.

The compounds below were run on JVM-3 (assay: cells). Conditions: Homo sapiens, JVM-3.
Format: functional, cell-based, Homo sapiens
Description: SANGER: Inhibition of human JVM-3 cell growth in a cell viability assay.
With `COc1cc(N2CCC(N3CCN(C)CC3)CC2)ccc1Nc1ncc(Cl)c(Nc2ccccc2S(=O)(=O)C(C)C)n1` [TAE-684] the IC50 was > 2 µM.
